The supplement of paper PMC4862054

Key:
Assay in all cases: normalised response (% of control), CellTiter-Glo; higher = more viable cells (100 = DMSO, 0 = benzethonium chloride kill control)
Settings in all cases: incubation time: 72 h
MDA-MB-436 = system: MDA-MB-436
Procedure, shortened: (§1)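 Breast cancer cell lines were exposed for 72 h in 384-well plates to compound at 5 concentrations, 10-fold apart, covering a 10,000-fold range fixed for each compound. Plates were read for CellTox Green fluorescence and CellTiter-Glo luminescence and normalised to 0.1 % DMSO (100) and a positive kill control (0). Each value is the normalised signal at one concentration of the series.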

CAL-85-1 = system: CAL-85-1
Procedure, shortened: as §1

MDA-MB-231 = system: MDA-MB-231
Procedure, shortened: as §1

BT-474 = system: BT-474
Procedure, shortened: as §1

HCC1599 = system: HCC1599
Procedure, shortened: as §1

HCC1143 = system: HCC1143
Procedure, shortened: as §1

BT-549 = system: BT-549
Procedure, shortened: as §1

DU-4475 = system: DU-4475
Procedure, shortened: as §1

HDQ-P1 = system: HDQ-P1
Procedure, shortened: as §1

MFM-223 = system: MFM-223
Procedure, shortened: as §1

HCC1937 = system: HCC1937
Procedure, shortened: as §1

CAL-51 = system: CAL-51
Procedure, shortened: as §1

MDA-MB-453 = system: MDA-MB-453
Procedure, shortened: as §1

MCF-10A = system: MCF-10A
Procedure, shortened: as §1

Hs578T = system: Hs578T
Procedure, shortened: as §1

CAL-120 = system: CAL-120
Procedure, shortened: as §1

MDA-MB-468 = system: MDA-MB-468
Procedure, shortened: as §1

SK-BR-3 = system: SK-BR-3
Procedure, shortened: as §1

CAL-148 = system: CAL-148
Procedure, shortened: as §1

Row | Compound | normalised response (MDA-MB-436) [%] | normalised response (CAL-85-1) [%] | normalised response (MDA-MB-231) [%] | normalised response (BT-474) [%] | normalised response (HCC1599) [%] | normalised response (HCC1143) [%] | normalised response (BT-549) [%] | normalised response (DU-4475) [%] | normalised response (HDQ-P1) [%] | normalised response (MFM-223) [%] | normalised response (HCC1937) [%] | normalised response (CAL-51) [%] | normalised response (MDA-MB-453) [%] | normalised response (MCF-10A) [%] | normalised response (Hs578T) [%] | normalised response (CAL-120) [%] | normalised response (MDA-MB-468) [%] | normalised response (SK-BR-3) [%] | normalised response (CAL-148) [%]
1 | CCS(=O)(=O)c1cccc(-c2cc(C(=O)NC3CCN(C)CC3)c(C)c3[nH]c4ncc(C)cc4c23)c1 [TAK-901] (1 nM) | 95.5 | 98 | 101 | 98.5 | 117 | 108 | 101 | 108 | 96 | 112 | 94.2 | 87.8 | 97 | 113 | 103 | 98.1 | 110 | 100 | 108
2 | Cc1cc(C(C)Nc2ccccc2)c2nc(N3CCOCC3)cc(=O)n2c1 (configuration not stated) [TGX-221] (1 nM) | 84 | 92.1 | 92.7 | 93.1 | 89.6 | 93.8 | 99.4 | 95.2 | 96.2 | 101 | 97.6 | 109 | 98.5 | 96.5 | 98.4 | 95.8 | 92.8 | 97 | 95.5
3 | Cc1cc(C(C)Nc2ccccc2)c2nc(N3CCOCC3)cc(=O)n2c1 (configuration not stated) [TGX-221] (10 nM) | 98 | 98.2 | 92.2 | 92.5 | 98.4 | 102 | 95.2 | 97.9 | 95.4 | 96.3 | 98.8 | 96.5 | 98.6 | 92.3 | 97.6 | 94.5 | 94.7 | 93.2 | 95
4 | COc1cc(Nc2ncc(F)c(Nc3ccc4c(n3)NC(=O)C(C)(C)O4)n2)cc(OC)c1OC [Tamatinib] (1 nM) | 105 | 97.9 | 107 | 98.5 | 114 | 108 | 101 | 106 | 101 | 108 | 98.5 | 105 | 121 | 111 | 111 | 102 | 101 | 112 | 102
5 | COc1cc(Nc2ncc(F)c(Nc3ccc4c(n3)NC(=O)C(C)(C)O4)n2)cc(OC)c1OC [Tamatinib] (10 nM) | 95.9 | 103 | 107 | 100 | 95.1 | 108 | 101 | 106 | 103 | 111 | 102 | 98.3 | 108 | 107 | 113 | 102 | 97.6 | 100 | 105
6 | C[C@@H]1CCN(C(=O)CC#N)C[C@@H]1N(C)c1ncnc2[nH]ccc12 [Tofacitinib] (0.5 nM) | 102 | 107 | 104 | 106 | 102 | 98 | 95.6 | 117 | 103 | 103 | 97.3 | 71.3 | 103 | 111 | 100 | 99 | 103 | 113 | 113
7 | CCCC(CCC)C(=O)O [Valproic acid] (100 nM) | 106 | 97.1 | 105 | 98.9 | 88.9 | 102 | 99.7 | 96.2 | 101 | 95.5 | 96.4 | 103 | 109 | 101 | 104 | 103 | 97.1 | 95.8 | 102
8 | FC(F)c1nc2ccccc2n1-c1nc(N2CCOCC2)nc(N2CCOCC2)n1 [ZSTK474] (1 nM) | 97.9 | 92.5 | 99.7 | 98.8 | 101 | 96.8 | 104 | 96.6 | 101 | 99 | 100 | 81.5 | 106 | 106 | 102 | 97.7 | 100 | 97.7 | 96.8
